How the values were obtained:
CT-DNA [1] = test: Ethidium bromide displacement assay (fluorescence); assay type: binding
Description: (§1) DNA is one of the key target for cancer therapy. The drug molecules bind with the DNA by three major modes (i) electrostatic interactions with the DNA double helix (ii) binding to grooves of DNA (iii) intercalation between the base pairs of DNA.[25] The titration in UV was performed by increasing concentration of DNA from 10–60 μM into a fixed drug concentration (20 μM). The intra-ligand absorption bands around 290–350 nm (π–π* transition) were used in observation of the interaction of DNA and compound 7e (Fig. S3a ^†). There was a hypochromic shift with a slight blue shift in the wavelength of compound 7e was observed which concluded that complex 7e bind to DNA through intercalative binding mode.[26] […] Ethidium bromide, a nonspecific intercalator, gives a strong fluorescence while intercalating DNA base pairs. This enhanced fluorescence can be quenched by another chemical moiety which can competitively replace EtBr and binds to the same site.[27] […] The original fluorescence intensity of EtBr–DNA complex is rapidly quenched by increasing the concentration of compound 7e (Fig. S3c ^†). […]
EtBr displacement is periodically used as a diagnostic approach to determine the capability of compounds to bind with DNA [4]. EtBr emits intense fluorescence when it intercalates with CT-DNA, whereas in its free form in buffer (5 mM Tris-HCl/50mM NaCl buffer, pH 7.4) there is no apparent florescence emission. […] The binding capacity of drug complex with CT-DNA was estimated by quenching of fluorescence intensity. […]
Κapp ×[Complex]50 = ΚEtBr ×[EtBr ](3) where Kapp is the apparent binding constant of the complex, [Complex]50 is the concentration of the complex at 50% fluorescence quenching of DNA-bound ethidium bromide, KEB is the binding constant of the EB (KEtBr = 1.0 x 107 M-1), and [EB] is the concentration of ethidium bromide (8 μM). The Stern-Volmer quenching constant (K SV) has been determined quantitatively by using Stern-Volmer equation. Stern-Volmer plots of I0/I vs. [complex] were made using the corrected fluorescence data taking into account the effect of dilution. […]

CT-DNA [2] = test: UV-visible absorption titration with CT-DNA; assay type: binding
Description: as §1, with “^†).” for “^†). There was a hypochromic shift with a slight blue shift in the wavelength of compound 7e was observed which concluded that complex 7e bind to DNA through intercalative binding mode.[26]”
Then the 96 well plate was placed on the shaker for 10 min and subsequently the absorbance was recorded by the ELISA reader at λ = 490 nm. […] The data were expressed as the growth inhibition percentage calculated according to the equation: % growth inhibition = 100 − [(AD × 100)/AB], where AD is the absorbance measured for sample and AB is the absorbance measured for blank wells (cells with a […]
with DNA. The absorbance of the complex was measured after each succeeding addition of […]

[3] = Metabolic stability in dog liver microsomes; assay type: in vitro ADME; conditions: for % Metabolism in 30 min: 0.5 μM, 0.5 mg ml^−1 protein, NADPH, 37 °C; for half-life at 0.5 μM: dog, liver microsomes
Description: The in vitro metabolic rate of 7g was determined in liver microsomes and the intrinsic clearance (CLintr) was estimated. The study was conducted at 0.5 μM substrate concentration and microsomal protein concentration of 0.5 mg ml^−1. Metabolic stability study in the presence of microsomes and cofactor NADPH was performed at 37 °C, 60 rpm for 30 min time duration. NADPH free control incubation was performed simultaneously for 30 min to understand if there are any non-enzymatic metabolism related issues. […] Intrinsic clearance as given in Table 6, was calculated using eqn (8). ^†

CLint ([3]; DLM set 1) | % Metabolism in 30 min ([3]; DLM set 1) | CLint ([3]; DLM set 2) | % Metabolism in 30 min ([3]; DLM set 2) | half-life at 0.5 μM ([3]; DLM set 1) | half-life at 0.5 μM ([3]; DLM set 2) | Compound | K sv, Stern–Volmer quenching constant (CT-DNA [1]; EtBr–DNA fluorescence quenching) | [7e]50, concentration at 50% fluorescence quenching of DNA-bound ethidium bromide (CT-DNA [1]; [DNA] = 120 μM, [EtBr] = 8 μM, Tris HCl/NaCl buffer pH 7.2) | K app, apparent DNA binding constant (CT-DNA [1]; competitive displacement of EtBr, fluorescence) | K b, intrinsic DNA binding constant (CT-DNA [2]; UV-visible absorption titration, 7e 20 μM, DNA 10–60 μM) | % Hypochromism (CT-DNA [2]; UV-visible titration with CT-DNA)
– | – | – | – | – | – | Clc1cc2nc(COc3ccccc3-c3nc4ccccc4s3)c(COc3ccccc3-c3nc4ccccc4s3)nc2cc1Cl [Compound 7e] | 5500 M⁻¹ | 140 µM | 570000 M⁻¹ | 6900 M⁻¹ | 50%
18 μl per min per mg protein | 21% | 12 μl per min per mg protein | 14% | 1.28 h | 1.91 h | COc1ccc2nc(COc3ccccc3-c3nc4ccccc4s3)c(COc3ccccc3-c3nc4ccccc4s3)nc2c1 [Compound 7g, 2,2'-((((6-methoxyquinoxaline-2,3-diyl)bis(methylene))bis(oxy))bis(2,1-phenylene))bis(benzo[d]thiazole)] | – | – | – | – | –
